# Where “and” joins values, the source holds several entries; their conditions need not be identical. Equal values may be shown once.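 Test compounds were applied to cells in 96-well plates for 48 hours at 5 doses. GI50 marks 50% less growth. TGI denotes the concentration required for complete inhibition of growth.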
# System: TK-10 renal
# Experiment: NCI tumour cell line growth inhibition, 48 h
SMILES,TGI,GI50
O=S1(=O)c2ccccc2N=C(c2ccccc2Cl)CC1c1ccc(F)cc1 (centres undefined),50.4 µM,
CC(/C=N/N=C(N)N)=N\N=C(N)N,813 µM,32.3 µM
CC1=CC(=O)NP(=O)(C23CC4CC(CC(C4)C2)C3)N1 (centres undefined),> 100 µM,
O=c1[nH]cc(C(F)(C(F)(F)F)C(F)(F)F)c(=O)[nH]1,> 100 µM,
COc1ccc2c(c1)c1c3n2CCNN=C3CCC1,> 86.9 µM,
CC(C)N1C(C)[C@@H](c2ccccc2)O[P@]1(=O)CC1=CCCCC1 (some centres undefined),> 100 µM,
COC(=O)C(=O)C(C(=O)C(=O)Nc1cc(Cl)c(Cl)cc1Cl)c1nc2ccc([N+](=O)[O-])cc2[nH]c1=O (centres undefined),> 100 µM,
COc1ccc(NC(=O)C2C(=O)N(c3ccc(OC)cc3)C(=O)/C2=N\NC(N)=O)cc1 (centres undefined),70.9 µM,
C/C(=N\NS(=O)(=O)c1ccc([N+](=O)[O-])cc1)c1ccc[n+]([O-])n1,25.9 µM,
S=c1c2ccccc2c(=S)n2n1CC=CC2,> 100 µM,
CC(C)(C)Sc1nnc(SC(C)(C)C)c2c(=O)[nH]nc(SC(C)(C)C)c12,37.8 µM,
CCCCNC1=C(C(=O)OCC)/C(=N/NC(=O)c2ccccc2O)CO1,> 100 µM,
N#CC(C(=O)CCCC(=O)Nc1ccc(Cl)cc1Cl)c1ccc(Cl)cc1 (centres undefined),> 100 µM,
O=CCCCC(Sc1ccccc1)Sc1ccccc1,> 100 µM,
COC(=O)/C(=N\Nc1nnc(C)n1N)C(C#N)c1ccccc1 (centres undefined),> 100 µM,
COc1ccc(C)cc1C1CCC(=O)O1 (centres undefined),> 100 µM,
Cc1ccc2nc(NC(=O)C(=O)CC(=O)c3cccc4ccccc34)sc2c1,44.6 µM,

SMILES,TGI,GI50
O=C1CCC(=O)c2sccc2N1,> 100 µM,
CCCCCCCCCCCCCCCCCC(=O)NCC(COP(=O)(O)O)OCC (centres undefined),> 100 µM,
Cn1nc(-c2ccccc2)c(C(=O)/C=C/c2ccc(Cl)cc2)c(N2CCCC2)c1=O,26.6 µM,
O=C1C=Cc2ncccc2C1=O,> 58.8 µM,
C/C(CC(=O)Nc1cccc([N+](=O)[O-])c1)=N\NC(=O)CC#N,> 100 µM,
[CH3][Sn]1([CH3])[O]CC(COc2cc(Cl)c(Cl)cc2Cl)[O]1 (centres undefined),> 100 µM,> 100 µM
Cc1cc2nc3c4ccc(Br)cc4n(CCN(C)C)c3nc2cc1C,7.23 µM,1.97 µM
CCc1cc(Cc2ccc(C)c(NC(=O)C(=O)C3C(=O)NC(=O)NC3=O)c2CC)cc(C)c1NC(=O)C(=O)C1C(=O)NC(=O)NC1=O,> 100 µM,
CC(=O)OC(=O)O/C=C\CCl,> 100 µM,
CC(=O)c1c2c(cc3c1CC1(C3)Cc3cc4c(c(C(=O)O)c3C1)CCC4)CCC2 (centres undefined),> 100 µM,
C/C(=N/O)c1ccc(Nc2cc(-n3ccnc3)c3ccccc3n2)cc1,> 100 µM,16.4 µM
Cc1ccc(/C=N/NS(=O)(=O)c2ccccc2)c(C)c1,> 100 µM,
NNC(=O)C(O)C(O)C(=O)NN (centres undefined),> 100 µM,
O=C(/C=C/c1cccc2ccccc12)Nc1ncc(Cc2ccccc2)s1,4.87 µM,1.69 µM
C#CCOCn1cnc2ncnc(N)c21,> 100 µM,
Cc1noc(/N=C2\C=C(Nc3onc(C)c3C)C(=O)c3ccccc32)c1C,> 100 µM,
CCCN1CCC=C(c2ccc(Nc3nc(Nc4ccccc4C(N)=O)c4cc[nH]c4n3)c(C)c2)C1,24.4 µM,4.61 µM

# System: SNB-19 CNS
# Experiment: NCI tumour cell line growth inhibition, 48 h
SMILES,TGI,GI50
O=S1(=O)c2ccccc2N=C(c2ccccc2Cl)CC1c1ccc(F)cc1 (centres undefined),31.4 µM,
CC(/C=N/N=C(N)N)=N\N=C(N)N,722 µM,14.5 µM
CC1=CC(=O)NP(=O)(C23CC4CC(CC(C4)C2)C3)N1 (centres undefined),> 100 µM,
O=c1[nH]cc(C(F)(C(F)(F)F)C(F)(F)F)c(=O)[nH]1,> 100 µM,
COc1ccc2c(c1)c1c3n2CCNN=C3CCC1,> 100 µM,
CC(C)N1C(C)[C@@H](c2ccccc2)O[P@]1(=O)CC1=CCCCC1 (some centres undefined),> 100 µM,
COC(=O)C(=O)C(C(=O)C(=O)Nc1cc(Cl)c(Cl)cc1Cl)c1nc2ccc([N+](=O)[O-])cc2[nH]c1=O (centres undefined),> 100 µM,
COc1ccc(NC(=O)C2C(=O)N(c3ccc(OC)cc3)C(=O)/C2=N\NC(N)=O)cc1 (centres undefined),> 100 µM,
C/C(=N\NS(=O)(=O)c1ccc([N+](=O)[O-])cc1)c1ccc[n+]([O-])n1,99.1 µM,
S=c1c2ccccc2c(=S)n2n1CC=CC2,> 100 µM,
CC(C)(C)Sc1nnc(SC(C)(C)C)c2c(=O)[nH]nc(SC(C)(C)C)c12,23.8 µM,
CCCCNC1=C(C(=O)OCC)/C(=N/NC(=O)c2ccccc2O)CO1,> 100 µM,
N#CC(C(=O)CCCC(=O)Nc1ccc(Cl)cc1Cl)c1ccc(Cl)cc1 (centres undefined),> 100 µM,
O=CCCCC(Sc1ccccc1)Sc1ccccc1,> 100 µM,
COC(=O)/C(=N\Nc1nnc(C)n1N)C(C#N)c1ccccc1 (centres undefined),> 100 µM,
COc1ccc(C)cc1C1CCC(=O)O1 (centres undefined),> 100 µM,

SMILES,TGI,GI50
Cc1ccc2nc(NC(=O)C(=O)CC(=O)c3cccc4ccccc34)sc2c1,> 100 µM,
O=C1CCC(=O)c2sccc2N1,> 100 µM,
CCCCCCCCCCCCCCCCCC(=O)NCC(COP(=O)(O)O)OCC (centres undefined),90.2 µM,
Cn1nc(-c2ccccc2)c(C(=O)/C=C/c2ccc(Cl)cc2)c(N2CCCC2)c1=O,21.7 µM,
O=C1C=Cc2ncccc2C1=O,> 100 µM,
[CH3][Sn]1([CH3])[O]CC(COc2cc(Cl)c(Cl)cc2Cl)[O]1 (centres undefined),> 100 µM,> 100 µM
Cc1cc2nc3c4ccc(Br)cc4n(CCN(C)C)c3nc2cc1C,7.52 µM,1.6 µM
CCc1cc(Cc2ccc(C)c(NC(=O)C(=O)C3C(=O)NC(=O)NC3=O)c2CC)cc(C)c1NC(=O)C(=O)C1C(=O)NC(=O)NC1=O,> 100 µM,
CC(=O)OC(=O)O/C=C\CCl,> 100 µM,
CC(=O)c1c2c(cc3c1CC1(C3)Cc3cc4c(c(C(=O)O)c3C1)CCC4)CCC2 (centres undefined),> 100 µM,
C/C(=N/O)c1ccc(Nc2cc(-n3ccnc3)c3ccccc3n2)cc1,> 100 µM,75.3 µM
NNC(=O)C(O)C(O)C(=O)NN (centres undefined),> 100 µM,
O=C(/C=C/c1cccc2ccccc12)Nc1ncc(Cc2ccccc2)s1,> 100 µM,0.971 µM
C#CCOCn1cnc2ncnc(N)c21,> 100 µM,
Cc1noc(/N=C2\C=C(Nc3onc(C)c3C)C(=O)c3ccccc32)c1C,> 100 µM,
CCCN1CCC=C(c2ccc(Nc3nc(Nc4ccccc4C(N)=O)c4cc[nH]c4n3)c(C)c2)C1,> 25 µM,> 25 µM

# System: CAKI-1 renal
# Experiment: NCI tumour cell line growth inhibition, 48 h
SMILES,TGI,GI50
O=S1(=O)c2ccccc2N=C(c2ccccc2Cl)CC1c1ccc(F)cc1 (centres undefined),34.3 µM,
CC(/C=N/N=C(N)N)=N\N=C(N)N,1010 µM,51.7 µM and 15.7 µM
CC1=CC(=O)NP(=O)(C23CC4CC(CC(C4)C2)C3)N1 (centres undefined),> 100 µM,
O=c1[nH]cc(C(F)(C(F)(F)F)C(F)(F)F)c(=O)[nH]1,> 100 µM,
COc1ccc2c(c1)c1c3n2CCNN=C3CCC1,> 100 µM,
COC(=O)C(=O)C(C(=O)C(=O)Nc1cc(Cl)c(Cl)cc1Cl)c1nc2ccc([N+](=O)[O-])cc2[nH]c1=O (centres undefined),> 100 µM,
COc1ccc(NC(=O)C2C(=O)N(c3ccc(OC)cc3)C(=O)/C2=N\NC(N)=O)cc1 (centres undefined),> 100 µM,
C/C(=N\NS(=O)(=O)c1ccc([N+](=O)[O-])cc1)c1ccc[n+]([O-])n1,6.99 µM,
S=c1c2ccccc2c(=S)n2n1CC=CC2,> 100 µM,
CC(C)(C)Sc1nnc(SC(C)(C)C)c2c(=O)[nH]nc(SC(C)(C)C)c12,16.3 µM,
